Laboratory results taken from the METLIN SMRT retention time set (Domingo-Almenara et al. 2019).

Experiment: gradient 5% acetonitrile 3 min, to 50% in 2 min, to 85% in 15 min, held 3 min, 100 µL/min
Settings: column: Zorbax Extend-C18 2.1 x 50 mm; eluents: water / acetonitrile, 0.1% formic acid
Outline: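 Retention times come from adduct peaks that were picked computationally and then checked by hand. The standards, pure and pooled in mixtures of ~100 molecules, were run on a Zorbax Extend-C18 column (2.1 × 50 mm, 1.8 μm) at 100 μL/min with water and acetonitrile, each with 0.1% formic acid. Detection was by quadrupole time-of-flight mass spectrometry in positive and negative ionization mode, with a dead volume of 40 μL and a dwell volume of 900 μL.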

RP-LC retention time	SMILES
636 s	CN1CCN(C(=O)C2CCN(S(=O)(=O)c3ccc(-c4noc(C5CC5)n4)cc3)CC2)CC1
654 s	CN1CCCCCC(O)c2cc(C(=O)NC3CCCCC3)ccc21 (configuration not stated)
854 s	CCCN1C(=O)c2cc(C(=O)NCc3ccc(C)cc3)nn2CC1(C)C(=O)NC1CCCC1 (configuration not stated)
1220 s	CCOC(=O)c1noc2nc(C)nc(N3CCN(c4cccc(Cl)c4)CC3)c12
629 s	Cc1ccc(-c2nc3ccccn3c2NC(=O)NCc2ccco2)cc1
728 s	COc1cc(CN2CC(Oc3ccc(-c4noc(-c5ccncc5)n4)cc3)C2)cc(OC)c1
770 s	CC(C)N1CCN(Cc2ccc(C(=O)NCc3ccccc3C(F)(F)F)cc2)C(=O)C1=O
602 s	Cn1c(CNC(=O)C2CCc3sc(C(=O)N4CCCC4)cc3C2)nc2ccccc21 (configuration not stated)
700 s	Cc1cccc(C(=O)NCc2ccc3c(c2)nnn3C)c1
837 s	C=CCN1C(=O)COc2ccc(-c3csc(NC(=O)CC)n3)cc21
887 s	Cc1nc(-c2cn(C)c3ncccc23)sc1C(=O)NCc1ccc(F)cc1F
906 s	CN(CC1CCOCC1)S(=O)(=O)c1cccc(C(F)(F)F)c1
691 s	O=C(Cn1nc2nc(N3CCCC3)ccn2c1=O)N1CCN(c2ccccc2F)CC1
734 s	O=C(NCC(O)c1ccsc1)Nc1cccc(Cl)c1 (configuration not stated)
1030 s	O=C(Nc1cccc(Br)c1)N1CCc2nc(-c3ccccc3)ncc2C1
833 s	CCCn1cc(CCNC(=O)c2ccc(Cl)s2)c2cccnc21
854 s	Cc1ccc(CNC(=O)N2CCN(Cc3nc4cc(-c5ccccc5)ccc4o3)CC2)cc1
733 s	O=S(=O)(c1cccnc1)N1CCN(Cc2nnnn2-c2ccc(F)c(F)c2)CC1
1210 s	Cc1nn(-c2nc(-c3ccc(F)cc3)cs2)c(C)c1CC(=O)N1CCCCCC1
996 s	COc1ccc(Cl)cc1NC(=O)CSc1nnc2c3cc(-c4ccc(F)cc4)nn3ccn12
618 s	Cc1cc(NC(=O)C2CCN(C(=O)c3snnc3C)CC2)no1
865 s	Cc1noc(-c2ccc(-n3cnc(C(=O)NCc4ccc(Cl)cc4)c3)nc2)n1

RP-LC retention time	SMILES
1050 s	COc1ccc(-c2csc3c(=O)n(Cc4ccc(F)cc4)cnc23)cc1
1090 s	Cc1oc(-c2ccccc2)nc1Cc1noc(Cc2ccc(F)cc2)n1
927 s	CC(C)c1ccc2c(c1)-c1ccccc1S(=O)(=O)N2CC(=O)N1CC(=O)Nc2ccccc21
853 s	Cc1ccccc1CNC(=O)CC1CCN(C(=O)c2[nH]c(C)c(C(=O)OC(C)C)c2C)CC1
628 s	O=C(NCCCn1cccn1)c1cccc2[nH]cc(CN3CCSCC3)c12
762 s	CCCn1ccc2sc(C)c(C(=O)N3CCN(c4ccc(OC)cc4)CC3)c2c1=O
536 s	CC(=O)N[C@@H]1CN(C(=O)c2ccc3ncccc3c2)C[C@H]1CO
611 s	Cc1noc2ncnc(N3CCCC(C(=O)N4CCN(Cc5ccc6c(c5)OCO6)CC4)C3)c12 (configuration not stated)
940 s	CCN(CC)C(=O)c1cnc2snc(C)c2c1N1CCC(C(=O)Nc2cc(F)ccc2F)CC1
848 s	Cc1csc(-c2cc(S(=O)(=O)NC3CCCC3)cn2CC(=O)N2CCCC2)n1
872 s	O=C(Nc1cccc(C(F)(F)F)c1)c1ccc(-n2cnc(NC(=O)C3CC3)c2)cc1
1050 s	Cc1cc(NC(=O)C2CCCN(c3ccc(=O)n(-c4cccc(F)c4)n3)C2)ccc1Br (configuration not stated)
704 s	Cc1ccc(CNC(=O)C2CCN(c3nc4cccnc4s3)CC2)o1
823 s	COC(=O)c1ccsc1NC(=O)CS(=O)(=O)Cc1ccccc1
585 s	CCN1CCN(C(=O)c2cnn(-c3cc(-c4nc(C)no4)ccn3)c2C)CC1
605 s	O=C(CCC[C@@H]1[C@H]2CCCN3CCC[C@@H](CN1C(=O)c1cc(F)cc(F)c1)[C@@H]23)N1CCOCC1
1080 s	CCN1CCCCc2cc(C(=O)NC(C)(C)C)sc21
1340 s	Cc1cccc(-c2noc(C3CCCN3S(=O)(=O)c3ccc4c(c3)CCCC4)n2)c1 (configuration not stated)
603 s	COc1ccccc1NC(=O)c1ccc(CSc2ncccn2)cc1
1040 s	CCCS(=O)(=O)N1CCC2(CC1)C(OC)CN2c1cccc(F)c1 (configuration not stated)
686 s	CCOc1cc(-c2ccc(Cl)cc2)nc2ccc(NC(C)=O)cc12
614 s	Fc1cccc(-c2noc(-c3ccc(NCCCN4CCC(N5CCCCC5)CC4)nc3)n2)c1

RP-LC retention time	SMILES
749 s	CC(=O)Nc1ccc(-n2cnc(C(=O)N3CCN(c4cccc(Cl)c4)CC3)c2)nc1
711 s	O=C(Nc1nnc(C2CC(=O)N(c3ccccc3)C2)o1)c1cccc(F)c1 (configuration not stated)
679 s	O=C(c1ccc(F)cc1)N1CCC2(CC1)OCC(C(=O)N1CCOCC1)N2C(=O)c1cccc(F)c1 (configuration not stated)
642 s	Cc1nc(C)c(-c2ccc(=O)n(CCNS(=O)(=O)c3ccc4c(c3)OCCO4)n2)s1
1120 s	CCN1C(=O)C2(CCN(S(=O)(=O)c3cccc(C(F)(F)F)c3)CC2)c2ccccc21
907 s	Cc1ccc(-n2c(=O)n(C)c(=O)c3cc(C(=O)Nc4ccc5c(c4)OCO5)cnc32)cc1
955 s	CCCCS(=O)(=O)c1cc2c(cc1NC(=O)c1ccc(C)cc1)n(C)c(=O)n2C
936 s	Cc1nc(-c2nnn(-c3ccccc3)c2C)sc1C(=O)NCCc1cccs1
669 s	COCCNC(=O)Cc1csc(SCC(=O)c2cccs2)n1
600 s	Cc1ccc(C(=O)N2CC(Cn3c(C)cnc3C3CCOCC3)C2)s1
722 s	CC1Oc2ccc(S(=O)(=O)N3CCC(C(=O)NCc4ccco4)CC3)cc2NC1=O (configuration not stated)
792 s	COc1cc(OC)cc(C(=O)N2C[C@@H]3C[C@H]2C[C@@H]3NS(=O)(=O)c2ccccc2)c1
899 s	COC(=O)c1cccc(C(=O)Nc2cccc(C)c2C)n1
754 s	CCn1cnc(S(=O)(=O)N2CCC(C(=O)N3CCc4ccccc43)CC2)c1
689 s	Cc1cc(C)n2nc(SCC(=O)NCCc3ccccc3)nc2n1
719 s	CC1CCN(c2cc(-n3cnc(C(=O)N4CCSCC4)c3)ncn2)CC1
680 s	CCCn1cc(-c2ccncc2)cc1C(=O)NCc1ccc(F)cc1
873 s	O=C(Cc1ccc(Br)cc1)N1CCN(c2cc(-c3ccccc3)[nH]n2)CC1
705 s	Cc1noc2ncn(CC(=O)NCc3ccccc3F)c(=O)c12
842 s	CCc1onc(C)c1C1CCCN1C(=O)Nc1cccc(C)c1 (configuration not stated)
1190 s	COc1ccc(OC)c(-c2csc(Nc3ccc(Br)cn3)n2)c1
1060 s	CCOC(=O)c1ccc(NC(=O)C2CCCN(S(=O)(=O)c3ccc(OC)c(Cl)c3)C2)cc1 (configuration not stated)

RP-LC retention time	SMILES
804 s	O=C(NC1CC1)c1nnc(-c2ccc(S(=O)(=O)N3CCCCC3)cc2)o1
574 s	CCCN1CCN(C(=O)C2CCN(S(=O)(=O)c3cc(C(=O)N4CCCC4)n(C)c3)CC2)CC1
672 s	Cn1cc(-c2ccncc2)cc1C(=O)NCc1cccc(Br)c1
1170 s	FC(F)(F)c1ccc(/C=C/c2nc(COc3ccc(CCCCn4ccnn4)cc3)co2)cc1
971 s	COC(=O)c1cc(S(=O)(=O)N2CCCC2C(=O)Nc2cccc(C(F)(F)F)c2)cn1C (configuration not stated)
800 s	COC(=O)c1ccc2c(=O)n(-c3ccc(OC)c(OC)c3)c(N3CCOCC3)nc2c1
882 s	COc1ccccc1CNC(=O)C1=C2CCCN2c2ccc(F)cc2S1(=O)=O
690 s	CCCn1cnc2cc(CNC(=O)c3ccc(C(C)C)cc3)ccc21
568 s	OCCCc1nc2ccccc2n1Cc1ccccc1Cl
884 s	Nc1ccccc1SC1CC(=O)N(c2ccccc2Cl)C1=O (configuration not stated)
860 s	O=C(NCCc1ccccc1)N1CCc2nc(-c3ccccc3)ncc2C1
956 s	Cc1ccc(Oc2nccnc2N2CCCC(C(=O)Nc3ccc(N4CCOCC4)cc3)C2)cc1 (configuration not stated)
690 s	Cc1ccc(Cn2cccc2C(=O)C(=O)N2CCN(c3ccccn3)CC2)cc1
714 s	CCC(=O)Nc1ccc2c(c1)CN(C(=O)c1ccccc1Cl)C(C(=O)N1CCCC1)C2 (configuration not stated)
756 s	O=S(=O)(c1cccc(Cl)c1)N1CCN(c2cnn3c(C4CC4)nnc3c2)CC1
614 s	CCc1noc(NC(C)=O)c1-c1ccc(OC)c(S(=O)(=O)N2CCN(c3ccccn3)CC2)c1
645 s	COCC(=O)Nc1ccc2c(c1)Sc1ncccc1C(=O)N2C(C)C
729 s	O=C(Cn1nc2n(c1=O)CCCCC2)Nc1ccc(F)c(Cl)c1
702 s	O=C(Cc1cccc(C(F)(F)F)c1)N1CCN(c2nnc3ccccn23)CC1
574 s	CCOc1ccc(NC(=O)Cn2c(N)nc(C)cc2=O)cc1

SMILES	RP-LC retention time
O=C(Nc1ccc(Cl)cc1C(=O)c1ccccc1)c1ccc(N2C(=O)CCC2=O)cc1	896 s
